In patent US11744837B2, “Use of cortisol in assessment and prophylactic treatment of hypokalemia associated with glucocorticoid receptor modulator treatment of Cushing's syndrome patients” (Corcept Therapeutics, Inc., priority 2018, dated 2023):
Like-named read-outs stand apart in the source and are kept apart here.

Key:
[1] = system: mifepristone treated subjects (PMD and Alzheimer's trials); test: Completed PMD and Alzheimer's trials together: clinically meaningful hypokalemia; format: in vivo, human; conditions: 16 of 821 mifepristone treated subjects
Excerpt: (§1) Clinically meaningful hypokalemia (<3.1) has been reported in 16 of 821 (1.9%) mifepristone treated subjects (12 in completed double blind PMD trials, and 4 in a completed Alzheimer's trial), and in 5 of 626 (0.8%) placebo treated subjects in completed PMD trials.

[2] = system: Cushing's syndrome patients; conditions: in vivo
Procedure: The risk of experiencing at least one episode of hypokalemia (potassium level <3.5 mEq/L) after 7 to 14 Days of exposure to KORLYM (mifepristone) was evaluated using stepwise multivariable logistic regression and single-variable logistic regression models. The following independent factors were evaluated for potential association with hypokalemia based on the biology of the disease: total cortisol at Day 1, ACTH at Day 1, and potassium level at Day 1.
The risk of experiencing at least one episode of hypokalemia (potassium level <3.5 mmol/L) after 28 Days of exposure to KORLYM was evaluated using stepwise multivariable logistic regression and single-variable logistic regression models. The following independent factors were evaluated for potential association with hypokalemia based on the biology of the disease: total cortisol at Day 1 and Day 14 (cort_01 and cort_14), ACTH at Day 1 and Day 14 (ACTH_01 and ACTH_14), and potassium levels at Day 1 and Day 14 (K_01 and K_14).
Patients were defined to have severe/recurrent hypokalemia for this analysis if they had at least one value of potassium of 2.5 mmol/L or lower, or if they had recurrent hypokalemia (hypokalemia occurring during multiple visits after Day 14 visit).
The Cushing's syndrome study reported herein was conducted in accordance with the Declaration of Helsinki and Good Clinical Practice (GCP) according to International Conference on Harmonization (ICH) guidelines.
(§2) Dosing Schedule Dosing was started with 300 mg of mifepristone once per day for 14 days. After 14 days, if no clinical improvement was seen but the drug was well tolerated, the dose of mifepristone was increased to 600 mg once per day. After 4 weeks of dosing at 600 mg once per day, if no clinical improvement was seen but the drug was well tolerated, the dose was increased to 900 mg once per day. Dose escalation was based on weight with the maximum dose no higher than 20 mg/kg/day. […] After 4 weeks of dosing at 900 mg once per day, if no clinical improvement was seen but the drug was well tolerated, the dose was increased to 1200 mg once per day. Study duration was 24 weeks.
Serum electrolytes, including potassium, were measured regularly throughout the study period.
(§3) Potassium levels were obtained on every subject at either screening or the pre-drug administration baseline visit, and then also at every scheduled post-baseline visit. Potassium levels post-baseline were therefore obtained as early as day 7 and through day 210 (week 30 was the last visit and was the 6 week follow-up visit). ACTH, and cortisol were measured at six visits (week 2 (day 14), week 6 (day 42), week 10 (day 70), week 16 (day 112), and week 24 (day 168) week 6 follow-up (day 210)).

healthy volunteers = test: Previous clinical studies in healthy volunteers: adverse events; format: in vivo, human
Excerpt: Hypokalemia and rash appear to be more common in subjects receiving mifepristone than in the control groups.

cortisol [3] = test: 24-hour urine cortisol during mifepristone treatment of Cushing's syndrome patients; format: in vivo, human
Procedure: as §2, §3

[4] = system: psychotic major depression (PMD) subjects; test: Double blind psychotic major depression (PMD) trials: hypokalemia; format: in vivo, human; conditions: completed double blind PMD trials
Excerpt: as §1

[5] = system: subjects in an Alzheimer's study; test: Alzheimer's study: hypokalemia; format: in vivo, human
Excerpt: as §1

ACTH = ACTH levels during mifepristone treatment of Cushing's syndrome patients; format: in vivo, human
Excerpt: (§4) The term “measuring the level,” in the context of cortisol, ACTH, mifepristone, or other compounds, refers to determining, detecting, or quantitating the amount, level, or concentration of, for example, cortisol, ACTH, mifepristone, or other compound in a sample obtained from a subject. Plasma or serum samples are often used for measuring ACTH or cortisol level.
(§5) The types of samples that are suitable for ACTH determination can be serum, plasma, saliva, urine, or any other biological fluid taken from a subject. In preferred embodiments, the sample is a serum sample, or is a plasma sample. The level of ACTH can be measured using various methods, including but not limited to, immunoassays, e.g., competitive immunoassay, radioimmunoassay (MA), immunofluorometric enzyme assay, and ELISA; competitive protein-binding assays; liquid chromatography (e.g., HPLC); and mass spectrometry, e.g., high-performance liquid chromatography/triple quadrupole-mass spectrometry (LC-MS/MS). Commercial kits for measuring ACTH are readily available, e.g., from Mayo clinic (Test ID: ACTH), Siemens Healthcare Global (Immulite® 2000 ACTH assay), and Roche Molecular Diagnostics (Catalog No. 03255751190). In preferred embodiments, ACTH levels are measured using a radioimmunoassay (RIA), most preferable a two-site MA, such as performed by Quest Diagnostics (Secaucus, N.J. 07094).
as §2, §3

[6] = system: Cushing's syndrome patients; conditions: cited from earlier work
cortisol [7] = test: Total serum cortisol during mifepristone treatment of Cushing's syndrome patients; format: in vivo, human
Excerpt: as §4
as §5, with “cortisol” for “ACTH”, “(LC-MS/MS).” for “(LC-MS/MS). Commercial kits for measuring ACTH are readily available, e.g., from Mayo clinic (Test ID: ACTH), Siemens Healthcare Global (Immulite® 2000 ACTH assay), and Roche Molecular Diagnostics (Catalog No. 03255751190).”, “LC-MS/MS,” for “a radioimmunoassay (RIA), most preferable a two-site MA,”
Dosing Schedule Dosing was started with 300 mg of mifepristone once per day for 14 days. After 14 days, if no clinical improvement was seen but the drug was well tolerated, the dose of mifepristone was increased to 600 mg once per day. After 4 weeks of dosing at 600 mg once per day, if no clinical improvement was seen but the drug was well tolerated, the dose was increased to 900 mg once per day. Dose escalation was based on weight with the maximum dose no higher than 20 mg/kg/day. […]
as §3, with “Potassium levels post-baseline were therefore obtained as early as day 7 and through day 210 (week 30 was the last visit and was the 6 week follow-up visit).” left out

[8] = patients who did not experience hypokalemia
[9] = 43 subjects with Cushing's disease

CC#C[C@]1(O)CC[C@H]2[C@@H]3CCC4=CC(=O)CCC4=C3[C@@H](c3ccc(N(C)C)cc3)C[C@@]21C [mifepristone, 11β-(4-dimethylaminophenyl)-17β-hydroxy-17α-(1-propynyl)-estra-4,9-dien-3-one]
Clinically meaningful hypokalemia (<3.1) [1]: 1.9% | Severe/Recurrent Hypokalemia ([2]; both, human): 9 (20.0) n (%) | developed hypokalemia on or after Day 28 ([2]; both, human): 6.7% | developed severe/recurrent hypokalemia on or after Day 28 ([2]; both, human): 6.7% | subjects with a Potassium value ≤3.5 mmol/L at any of the six visits ([2]; both, human): 21 | subjects with a Potassium value ≤3.5 mmol/L at any post-baseline visit ([2]; both, human): 23 | Number with Hypokalemia (%) (Potassium ≤ 3.4 mEq/L) ([2]; both, human, 6 weeks): 7 (14%) | Number with Hypokalemia (%) (Potassium ≤ 3.4 mEq/L) ([2]; both, human, 8 weeks): 4 (8%) | Number with Hypokalemia (%) (Potassium ≤ 3.4 mEq/L) ([2]; both, human, 10 weeks): 4 (8%) | Number with Hypokalemia (%) (Potassium ≤ 3.4 mEq/L) ([2]; both, human, 12 weeks): 3 (6%) | Number with Severe Hypokalemia (%) (Potassium ≤ 2.5 mEq/L) ([2]; both, human, 12 weeks): 1 (2%) | Number with Hypokalemia (%) (Potassium ≤ 3.4 mEq/L) ([2]; both, human, 16 weeks): 5 (10%) | Number with Severe Hypokalemia (%) (Potassium ≤ 2.5 mEq/L) ([2]; both, human, 16 weeks): 1 (2%) | Number with Hypokalemia (%) (Potassium ≤ 3.4 mEq/L) ([2]; both, human, 20 weeks): 1 (2%) | Decreased potassium observed during at least one visit ([2]; both, human, 24 weeks): about 30% | Number with Hypokalemia (%) (Potassium ≤ 3.4 mEq/L) ([2]; both, human, 24 weeks): 4 (8%) | developed hypokalemia after dosing with KORLYM ([2]; both, human, 24 weeks): 42.9% | Number with Hypokalemia (%) (Potassium ≤ 3.4 mEq/L) ([2]; both, human, 30 weeks): 3 (6%) | Number with Severe Hypokalemia (%) (Potassium ≤ 2.5 mEq/L) ([2]; both, human, 30 weeks): 1 (2%) | Number with Hypokalemia (%) (Potassium ≤ 3.4 mEq/L) ([2]; both, human, 1 day): 2 (4%) | Number with Hypokalemia (%) (Potassium ≤ 3.4 mEq/L) ([2]; both, human, 7 day): 2 (4%) | Number with Hypokalemia (%) (Potassium ≤ 3.4 mEq/L) ([2]; both, human, 14 day): 8 (16%) | Number with Severe Hypokalemia (%) (Potassium ≤ 2.5 mEq/L) ([2]; both, human, 14 day): 1 (2%) | share of subjects with a Potassium value ≤3.5 mmol/L as early as day 14, all post-baseline values ([2]; both, human, 14 days): 48% | share of those subjects with a Potassium value ≤3.5 mmol/L as early as day 14 ([2]; both, human, 14 days): 38% | Number with Hypokalemia (%) (Potassium ≤ 3.4 mEq/L) ([2]; both, human, 28 day): 10 (20%) | Number of Subjects Hypokalemic <=3.5 mmol/L ([2]; both, human, 210 day): 3 | Number of Subjects Non-Hypokalemic >3.5 mmol/L ([2]; both, human, 210 day): 37 | patients with at least one potassium value of 2.5 mmol/L or lower [2]: two | severity of hypokalemia [2]: generally mild to moderate | subjects with a day 7 Potassium value ≤3.5 mmol/L [2]: three | frequently reported adverse events (healthy volunteers; mifepristone administered to healthy volunteers): headache, gastrointestinal symptoms including diarrhea, nausea and vomiting, and rash | Hypokalemia and rash compared with the control groups (healthy volunteers; subjects receiving mifepristone): more common | 24 Hour Urine Cortisol (nmol/24 hr)/ACTH Ratio Visit Values, Mean ± SD (cortisol [3]; Day 42, Non-Hypokalemic (N 35)): 7.9 ± 6.0 (35) | 24 Hour Urine Cortisol (nmol/24 hr)/ACTH Ratio Visit Values, Mean ± SD (cortisol [3]; Day 70, Non-Hypokalemic (N 30)): 17.0 ± 32.7 (30) | 24 Hour Urine Cortisol (nmol/24 hr)/ACTH Ratio Visit Values, Mean ± SD (cortisol [3]; Day 112, Non-Hypokalemic (N 23)): 9.6 ± 16.3 (23) | ratios of 24-hour urine cortisol values divided by ACTH values (cortisol [3]; patients experiencing hypokalemia): greater than 20 | ratios of 24-hour urine cortisol values divided by ACTH values (cortisol [3]; [8]): less than 20 | 24 hour urine cortisol levels (cortisol [3]; patients who did not experience hypokalemia, at all times during mifepristone treatment): below 1700 nmol/24 hr | 24-hour urine cortisol levels (cortisol [3]; patients who experienced hypokalemia): above 2000 nmol/24 hr | change in 24-hour urine cortisol levels as compared to baseline (cortisol [3]; patients who experienced hypokalemia, day 42): greater than 600 nmol/24 hr | subjects with clinically meaningful hypokalemia (<3.1) [4]: 12 | subjects with clinically meaningful hypokalemia (<3.1) ([5]; completed Alzheimer's trial): 4 | subjects with hypokalemia in the range of 2.8 to 3.5 mEq/L ([5]; out of 33 subjects, 300 mg per day of mifepristone for 16 weeks): 9 | change of ACTH during mifepristone treatment (ACTH; [9]): increased about two-fold | Ratio of ACTH Visit Change Values from Baseline per Baseline (ACTH_CHG/ACTH Baseline), Mean ± SD (ACTH; Day 42, Hypokalemic (N 6)): 2.50 ± 0.61 (6) | Ratio of ACTH Visit Change Values from Baseline per Baseline (ACTH_CHG/ACTH Baseline), Mean ± SD (ACTH; Day 168, Hypokalemic (N 5)): 3.30 ± 2.54 (5) | rise of ACTH levels following an initial increase in mifepristone dose (FIG. 1) (ACTH; [8]): about 25 pg/mL | patients with serum potassium levels less than 3.5 mEq/L ([6]; of 43 Cushing's syndrome patients treated with mifepristone): 22 | patients with serum potassium levels less than 2.5 mEq/L (severe hypokalemia) ([6]; of the 22 of 43 patients with potassium <3.5 mEq/L): 3 | change of serum cortisol during mifepristone treatment (cortisol [7]; [9]): increased to a smaller degree | total serum cortisol levels (cortisol [7]; patients who did not experience hypokalemia, early on during mifepristone treatment (e.g., day 14 and/or day 42)): below 1000 nmol/L | total serum cortisol levels (cortisol [7]; patients who experienced hypokalemia, early on during mifepristone treatment (e.g., day 14 and day 42)): above 1000 nmol/L
